According to ChEMBL document CHEMBL4651402, “Screening of ~5500 FDA-approved drugs and clinical candidates for anti-SARS-CoV-2 activity” (2021):

Tested on: SARS-CoV-2
Experiment: microbe, parasite or virus in culture
Conditions: Severe acute respiratory syndrome coronavirus 2, Vero C1008, 48 h

Row | SMILES | IC50 | IC50 (read-out: pIC50 (converted))
1 | CO/N=C(\C(=O)N[C@@H]1C(=O)N2C(C(=O)O)=C(CSc3nc(=O)c(O)nn3C)CS[C@H]12)c1csc(N)n1 [CEFTRIAXONE] | > 20 µM | > 20 µM
2 | CO/N=C(\C(=O)N[C@@H]1C(=O)N2C(C(=O)O)=C(COC(N)=O)CS[C@H]12)c1ccco1 [CEFUROXIME] | > 20 µM | > 20 µM
3 | Cc1ccc(-c2cc(C(F)(F)F)nn2-c2ccc(S(N)(=O)=O)cc2)cc1 [CELECOXIB] | > 20 µM | > 20 µM
4 | CCCC(=O)O[C@H]1CN2CC[C@H](O)[C@@H]2[C@@H](O)[C@@H]1O [CELGOSIVIR] | > 20 µM | > 20 µM
5 | CCN(CC)C(=O)Nc1ccc(OCC(O)CNC(C)(C)C)c(C(C)=O)c1 (stereo unspecified) [CELIPROLOL] | > 20 µM | > 20 µM
6 | NC(=O)O[C@@H](Cn1ncnn1)c1ccccc1Cl [CENOBAMATE] | > 20 µM | > 20 µM
7 | COc1cc2ncnc(Oc3cccc(NC(=O)Nc4cc(C(C)(C)C(F)(F)F)on4)c3)c2cc1OC [CEP-32496] | > 20 µM | > 20 µM
8 | CC[C@H]1CN2CCc3cc(OC)c(OC)cc3[C@@H]2C[C@@H]1C[C@H]1NCCc2cc(O)c(OC)cc21 [CEPHAELINE] | > 20 µM | > 20 µM
9 | CC1=C(C(=O)O)N2C(=O)[C@@H](NC(=O)[C@H](N)c3ccccc3)[C@H]2SC1 [CEPHALEXIN ANHYDROUS] | > 20 µM | > 20 µM
10 | CCS(=O)(=O)N1CCN(c2ccc(Nc3ncc(C(N)=O)c(NC4CC4)n3)cc2)CC1 [CERDULATINIB] | > 20 µM | > 20 µM
11 | Cc1cc(Nc2ncc(Cl)c(Nc3ccccc3S(=O)(=O)C(C)C)n2)c(OC(C)C)cc1C1CCNCC1 [CERITINIB] | > 20 µM | > 20 µM
12 | COCc1c(C(C)C)nc(C(C)C)c(/C=C/[C@@H](O)C[C@@H](O)CC(=O)O)c1-c1ccc(F)cc1 [CERIVASTATIN] | > 20 µM | > 20 µM
13 | NCCCC[C@H](OP(=O)(O)CCCCc1ccccc1)C(=O)N1CCC[C@H]1C(=O)O [CERONAPRIL] | > 20 µM | > 20 µM
14 | C/C=C/C/C=C/CCC(=O)[C@H]1O[C@H]1C(N)=O [CERULENIN] | > 20 µM | > 20 µM
15 | CNC(=O)COc1ccccc1OCC(O)CNC(C)(C)C (stereo unspecified) [CETAMOLOL] | > 20 µM | > 20 µM
16 | CC[C@H]1OC(=O)[C@H](C)C(=O)[C@H](C)[C@@H](O[C@@H]2O[C@H](C)C[C@H](N(C)C)[C@H]2O)[C@](C)(OCC=Cc2cnc3ccccc3c2)C[C@@H](C)C(=O)[C@H](C)[C@H]2NC(=O)O[C@@]21C [CETHROMYCIN] | > 20 µM | > 20 µM
17 | O=C(O)COCCN1CCN(C(c2ccccc2)c2ccc(Cl)cc2)CC1 (stereo unspecified) [CETIRIZINE] | > 20 µM | > 20 µM
18 | CCCCCCCCCCCCCCCC[N+](C)(C)C [CETRIMONIUM] | > 20 µM | > 20 µM
19 | Cc1c(N)cccc1Cn1ccc(OCCc2cccs2)cc1=O [CG-400549] | > 20 µM | > 20 µM
20 | CN1Cc2c(ccc3c2OCO3)C2C(O)Cc3cc4c(cc3C21)OCO4 (stereo not drawn) [CHELIDONINE (+)] | > 20 µM | > 20 µM
21 | COc1cc(-c2ccc(/N=N/c3ccc4c(S(=O)(=O)O)cc(S(=O)(=O)O)c(N)c4c3O)c(OC)c2)ccc1/N=N/c1ccc2c(S(=O)(=O)O)cc(S(=O)(=O)O)c(N)c2c1O [CHICAGO SKY BLUE] | > 20 µM | > 20 µM
22 | OC[C@@H](O)[C@H]1O[C@@H]2O[C@H](C(Cl)(Cl)Cl)O[C@@H]2[C@H]1O [CHLORALOSE] | > 20 µM | > 20 µM
23 | O=C(O)CCCc1ccc(N(CCCl)CCCl)cc1 [CHLORAMBUCIL] | > 20 µM | > 20 µM
24 | O=C1C(Cl)=C(Cl)C(=O)C(Cl)=C1Cl [CHLORANIL] | > 20 µM | > 20 µM
25 | CN1CCN(C(c2ccccc2)c2ccc(Cl)cc2)CC1 (stereo unspecified) [CHLORCYCLIZINE] | > 20 µM | > 20 µM

Row | SMILES | IC50 | IC50 (read-out: pIC50 (converted))
26 | CCCCC(CC)C1NC(=O)N(SC(Cl)(Cl)Cl)C1=O (stereo unspecified) [CHLORDANTOIN] | > 20 µM | > 20 µM
27 | CNC1=Nc2ccc(Cl)cc2C(c2ccccc2)=[N+]([O-])C1 [CHLORDIAZEPOXIDE] | > 20 µM | > 20 µM
28 | N=C(NCCCCCCNC(=N)NC(=N)Nc1ccc(Cl)cc1)NC(=N)Nc1ccc(Cl)cc1 [CHLORHEXIDINE] | > 20 µM | > 20 µM
29 | Oc1ccc(Cl)c2c1CCC2 [CHLORINDANOL] | > 20 µM | > 20 µM
30 | C[N+](C)(C)CC[N+]1(C)Cc2c(Cl)c(Cl)c(Cl)c(Cl)c2C1 [CHLORISONDAMINE] | > 20 µM | > 20 µM
31 | CC(=O)O[C@]1(C(C)=O)CC[C@H]2[C@@H]3C=C(Cl)C4=CC(=O)CC[C@]4(C)[C@H]3CC[C@@]21C [CHLORMADINONE ACETATE] | > 20 µM | > 20 µM
32 | CN1C(=O)CCS(=O)(=O)C1c1ccc(Cl)cc1 (stereo unspecified) [CHLORMEZANONE] | > 20 µM | > 20 µM
33 | Cc1nc2ccccc2n1Cc1ccc(Cl)cc1 [CHLORMIDAZOLE] | > 20 µM | > 20 µM
34 | Cc1cc(O)ccc1Cl [CHLOROCRESOL] | > 20 µM | > 20 µM
35 | O=C(/C=C/c1ccc(O)c(O)c1)O[C@@H]1C[C@](O)(C(=O)O)C[C@@H](O)[C@H]1O [CHLOROGENIC ACID] | > 20 µM | > 20 µM
36 | Clc1cccc(N2CCNCC2)c1 [CHLOROPHENYLPIPERAZINE] | > 20 µM | > 20 µM
37 | CN(C)CCN(Cc1ccc(Cl)cc1)c1ccccn1 [CHLOROPYRAMINE] | > 20 µM | > 20 µM
38 | N#Cc1c(Cl)c(Cl)c(Cl)c(C#N)c1Cl [CHLOROTHALONIL] | > 20 µM | > 20 µM
39 | CN(C)CCN(Cc1ccc(Cl)s1)c1ccccn1 [CHLOROTHEN] | > 20 µM | > 20 µM
40 | NS(=O)(=O)c1cc2c(cc1Cl)N=CNS2(=O)=O [CHLOROTHIAZIDE] | > 20 µM | > 20 µM
41 | COc1ccc(C(Cl)=C(c2ccc(OC)cc2)c2ccc(OC)cc2)cc1 [CHLOROTRIANISENE] | > 20 µM | > 20 µM
42 | Oc1c(Cl)cc(Cl)c2cccnc12 [CHLOROXINE] | > 20 µM | > 20 µM
43 | Cc1cc(O)cc(C)c1Cl [CHLOROXYLENOL] | > 20 µM | > 20 µM
44 | NC(=O)OCC(O)COc1ccc(Cl)cc1 (stereo unspecified) [CHLORPHENESIN CARBAMATE] | > 20 µM | > 20 µM
45 | CN(C)CCC(c1ccc(Cl)cc1)c1ccccn1 (stereo unspecified) [CHLORPHENIRAMINE] | > 20 µM | > 20 µM
46 | CC(C)(N)Cc1ccc(Cl)cc1 [CHLORPHENTERMINE] | > 20 µM | > 20 µM
47 | CN(C)CCCN1c2ccccc2Sc2ccc(Cl)cc21 [CHLORPROMAZINE] | > 20 µM | > 20 µM
48 | CCCNC(=O)NS(=O)(=O)c1ccc(Cl)cc1 [CHLORPROPAMIDE] | > 20 µM | > 20 µM
49 | Cc1ccc2c(Cl)cc(Cl)c(O)c2n1 [CHLORQUINALDOL] | > 20 µM | > 20 µM
50 | NS(=O)(=O)c1cc(C2(O)NC(=O)c3ccccc32)ccc1Cl (stereo unspecified) [CHLORTHALIDONE] | > 20 µM | > 20 µM

Row | SMILES | IC50 | IC50 (read-out: pIC50 (converted))
51 | O=C(O)c1cc(=O)c2ccccc2o1 [CHROMOCARB] | > 20 µM | > 20 µM
52 | CCOC(=O)COc1ccc2c(C)c(CCN(CC)CC)c(=O)oc2c1 [CHROMONAR] | > 20 µM | > 20 µM
53 | CC(C)=CC1C(CO)C1(C)C (stereo unspecified) [CHRYSANTHEMYL ALCOHOL] | > 20 µM | > 20 µM
54 | COc1cc(OC)c2c(=O)cc(-c3ccccc3)oc2c1 [CHRYSIN DIMETHYL ETHER] | > 20 µM | > 20 µM
55 | O=c1cc(-c2ccccc2)oc2cc(O)cc(O)c12 [CHRYSIN] | > 20 µM | > 20 µM
56 | N#CN=C(NCCCCCCOc1ccc(Cl)cc1)Nc1ccncc1 [CHS-828] | > 20 µM | > 20 µM
57 | O=C(NOCC1CC1)c1ccc(F)c(F)c1Nc1ccc(I)cc1Cl [CI-1040] | > 20 µM | > 20 µM
58 | Oc1cc(O)c2c(c1)O[C@H](c1ccc(O)c(O)c1)[C@@H](O)C2 [CIANIDANOL] | > 20 µM | > 20 µM
59 | CN(C)CCCN1c2ccccc2CCc2ccc(C#N)cc21 [CIANOPRAMINE] | > 20 µM | > 20 µM
60 | Cc1cc(C2CCCCC2)n(O)c(=O)c1 [CICLOPIROX] | > 20 µM | > 20 µM
61 | CC(C(=O)O)c1ccc2c(c1)Cc1ccccc1-2 (stereo unspecified) [CICLOPROFEN] | > 20 µM | > 20 µM
62 | CC1(COc2ccc(CC3SC(=O)NC3=O)cc2)CCCCC1 (stereo unspecified) [CIGLITAZONE] | > 20 µM | > 20 µM
63 | CC1(C)C[C@@H]1C(=O)N/C(=C\CCCCSC[C@H](N)C(=O)O)C(=O)O [CILASTATIN] | > 20 µM | > 20 µM
64 | CCOC(=O)[C@H](CCc1ccccc1)N[C@H]1CCCN2CCC[C@@H](C(=O)O)N2C1=O [CILAZAPRIL] | > 20 µM | > 20 µM
65 | COCCOC(=O)C1=C(C)NC(C)=C(C(=O)OC/C=C/c2ccccc2)C1c1cccc([N+](=O)[O-])c1 (stereo unspecified) [CILNIDIPINE] | > 20 µM | > 20 µM
66 | COc1ccc([C@]2(C#N)CC[C@@H](C(=O)O)CC2)cc1OC1CCCC1 [CILOMILAST] | > 20 µM | > 20 µM
67 | CN(C(=O)CCCOc1ccc2[nH]c(=O)ccc2c1)C1CCCCC1 [CILOSTAMIDE] | > 20 µM | > 20 µM
68 | O=C1CCc2cc(OCCCCc3nnnn3C3CCCCC3)ccc2N1 [CILOSTAZOL] | > 20 µM | > 20 µM
69 | CN/C(=N\CCSCc1nc[nH]c1C)NC#N [CIMETIDINE] | > 20 µM | > 20 µM
70 | CN(C)CCCSc1ccccc1NC(=O)/C=C/c1ccccc1 [CINANSERIN] | > 20 µM | > 20 µM
71 | C=C[C@H]1CN2CC[C@H]1C[C@H]2[C@H](O)c1ccnc2ccccc12 [CINCHONIDINE] | > 20 µM | > 20 µM
72 | O=C(O)c1cc(-c2ccccc2)nc2ccccc12 [CINCHOPHEN] | > 20 µM | > 20 µM
73 | COc1cc(/C=C/C(=O)N2CCN(CC(=O)N3CCCC3)CC2)cc(OC)c1OC [CINEPAZIDE] | > 20 µM | > 20 µM
